Experimental data taken from the supplement of paper PMC10307832.

Experiments:
Assay in all cases: relative viability (nuclei count vs DMSO), 5 days (fraction); higher = more cells survive
[1] = compound: COc1cc2nc(N3CCCN(C)CC3)nc(NC3CCN(Cc4ccccc4)CC3)c2cc1OC + O=C(c1cc(Cc2n[nH]c(=O)c3ccccc23)ccc1F)N1CCN(C(=O)C2CC2)CC1 [Olaparib] (partner 8 µM)
Method in brief: (§1)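 One day after seeding in 1536-well plates, lung cancer cell lines were dosed by pin tool. Dosing was either single-drug or a fixed anchor-drug dose plus five library-drug doses (not always all listed) in √10 steps. After 5 days, nuclei were stained in one fix-and-stain step and counted on 4× images, and relative viability is the nuclei count of treated wells over that of vehicle wells, given as the median of duplicate plates.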

[2] = compound: COc1cc2nc(N3CCCN(C)CC3)nc(NC3CCN(Cc4ccccc4)CC3)c2cc1OC + Cc1nc(NC(=O)N2CCC[C@H]2C(N)=O)sc1-c1ccnc(C(C)(C)C(F)(F)F)c1 [Alpelisib] (partner 2 µM)
Method in brief: as §1

[3] = compound: Cc1cc([C@@H](C)Nc2ccccc2C(=O)O)c2nc(N3CCOCC3)cc(=O)n2c1 [AZD6482] + C[C@]1(O)C[C@@H](c2nc(-c3ccc4ccc(-c5ccccc5)nc4c3)c3c(N)nccn32)C1 [Linsitinib] (partner 1 µM)
Method in brief: as §1

[4] = compound: Cc1cc([C@@H](C)Nc2ccccc2C(=O)O)c2nc(N3CCOCC3)cc(=O)n2c1 [AZD6482] + CC(C)C[C@H](NC(=O)[C@H](Cc1ccccc1)NC(=O)c1cnccn1)B(O)O [Bortezomib] (partner 0.002 µM)
Method in brief: as §1

Cell Line: HCC-78
- relative viability ([1]; first compound 0.2 µM): 0.944
- relative viability ([1]; first compound 0.6325 µM): 0.66
- relative viability ([1]; first compound 2 µM): 0.787
- relative viability ([1]; first compound 6.325 µM): 0.831
- relative viability ([2]; first compound 0.2 µM): 0.354
- relative viability ([2]; first compound 0.6325 µM): 0.364
- relative viability ([2]; first compound 2 µM): 0.297
- relative viability ([2]; first compound 6.325 µM): 0.251
- relative viability ([3]; first compound 0.08 µM): 0.285
- relative viability ([3]; first compound 0.253 µM): 0.209
- relative viability ([3]; first compound 0.8 µM): 0.223
- relative viability ([3]; first compound 2.53 µM): 0.214
- relative viability ([3]; first compound 8 µM): 0.236
- relative viability ([4]; first compound 0.08 µM): 0.42
- relative viability ([4]; first compound 0.253 µM): 0.394
- relative viability ([4]; first compound 0.8 µM): 0.337
- relative viability ([4]; first compound 2.53 µM): 0.203
- relative viability ([4]; first compound 8 µM): 0.225

Cell Line: NCI-H1563
- relative viability ([2]; first compound 0.2 µM): 0.954
- relative viability ([2]; first compound 0.6325 µM): 0.904
- relative viability ([2]; first compound 2 µM): 0.834
- relative viability ([2]; first compound 6.325 µM): 0.73
- relative viability ([3]; first compound 0.08 µM): 1.02
- relative viability ([3]; first compound 0.253 µM): 0.951
- relative viability ([3]; first compound 0.8 µM): 0.908
- relative viability ([3]; first compound 2.53 µM): 0.843
- relative viability ([3]; first compound 8 µM): 0.759
- relative viability ([4]; first compound 0.08 µM): 0.75
- relative viability ([4]; first compound 0.253 µM): 0.828
- relative viability ([4]; first compound 0.8 µM): 0.818
- relative viability ([4]; first compound 2.53 µM): 0.673
- relative viability ([4]; first compound 8 µM): 0.68

Cell Line: HCC-15
- relative viability ([1]; first compound 0.2 µM): 0.738
- relative viability ([1]; first compound 0.6325 µM): 0.674
- relative viability ([1]; first compound 2 µM): 0.754
- relative viability ([1]; first compound 6.325 µM): 0.695
- relative viability ([2]; first compound 0.2 µM): 0.886
- relative viability ([2]; first compound 0.6325 µM): 0.842
- relative viability ([2]; first compound 2 µM): 0.875
- relative viability ([2]; first compound 6.325 µM): 0.687
- relative viability ([3]; first compound 0.08 µM): 0.803
- relative viability ([3]; first compound 0.253 µM): 0.894
- relative viability ([3]; first compound 0.8 µM): 0.858
- relative viability ([3]; first compound 2.53 µM): 0.812
- relative viability ([3]; first compound 8 µM): 0.922
- relative viability ([4]; first compound 0.08 µM): 0.926
- relative viability ([4]; first compound 0.253 µM): 0.99
- relative viability ([4]; first compound 0.8 µM): 1.08
- relative viability ([4]; first compound 2.53 µM): 0.904
- relative viability ([4]; first compound 8 µM): 1.04

Cell Line: EKVX
- relative viability ([1]; first compound 0.2 µM): 0.838
- relative viability ([1]; first compound 0.6325 µM): 0.873
- relative viability ([1]; first compound 2 µM): 0.808
- relative viability ([1]; first compound 6.325 µM): 0.776
- relative viability ([2]; first compound 0.2 µM): 0.918
- relative viability ([2]; first compound 0.6325 µM): 0.833
- relative viability ([2]; first compound 2 µM): 0.92
- relative viability ([2]; first compound 6.325 µM): 0.784
- relative viability ([3]; first compound 0.08 µM): 0.716
- relative viability ([3]; first compound 0.253 µM): 0.6
- relative viability ([3]; first compound 0.8 µM): 0.646
- relative viability ([3]; first compound 2.53 µM): 0.362
- relative viability ([3]; first compound 8 µM): 0.544
- relative viability ([4]; first compound 0.08 µM): 0.815
- relative viability ([4]; first compound 0.253 µM): 0.965
- relative viability ([4]; first compound 0.8 µM): 0.863
- relative viability ([4]; first compound 2.53 µM): 0.789
- relative viability ([4]; first compound 8 µM): 0.689

Cell Line: NCI-H2087
- relative viability ([1]; first compound 0.2 µM): 0.633
- relative viability ([1]; first compound 0.6325 µM): 0.615
- relative viability ([1]; first compound 2 µM): 0.706
- relative viability ([1]; first compound 6.325 µM): 0.594
- relative viability ([2]; first compound 0.2 µM): 1.15
- relative viability ([2]; first compound 0.6325 µM): 1.2
- relative viability ([2]; first compound 2 µM): 1.27
- relative viability ([2]; first compound 6.325 µM): 1.05
- relative viability ([3]; first compound 0.08 µM): 0.902
- relative viability ([3]; first compound 0.253 µM): 0.929
- relative viability ([3]; first compound 0.8 µM): 1.09
- relative viability ([3]; first compound 2.53 µM): 0.815
- relative viability ([3]; first compound 8 µM): 0.964
- relative viability ([4]; first compound 0.08 µM): 0.904
- relative viability ([4]; first compound 0.253 µM): 0.912
- relative viability ([4]; first compound 0.8 µM): 0.831
- relative viability ([4]; first compound 2.53 µM): 0.661
- relative viability ([4]; first compound 8 µM): 1.04

Cell Line: LK-2
- relative viability ([1]; first compound 0.2 µM): 0.778
- relative viability ([1]; first compound 0.6325 µM): 0.68
- relative viability ([1]; first compound 2 µM): 0.893
- relative viability ([1]; first compound 6.325 µM): 0.867
- relative viability ([2]; first compound 0.2 µM): 1.02
- relative viability ([2]; first compound 0.6325 µM): 1.05
- relative viability ([2]; first compound 2 µM): 1.26
- relative viability ([2]; first compound 6.325 µM): 1.01
- relative viability ([3]; first compound 0.08 µM): 0.587
- relative viability ([3]; first compound 0.253 µM): 0.521
- relative viability ([3]; first compound 0.8 µM): 0.791
- relative viability ([3]; first compound 2.53 µM): 0.513
- relative viability ([3]; first compound 8 µM): 0.421

Cell Line: NCI-H1437
- relative viability ([1]; first compound 0.2 µM): 0.626
- relative viability ([1]; first compound 0.6325 µM): 0.628
- relative viability ([1]; first compound 2 µM): 0.623
- relative viability ([1]; first compound 6.325 µM): 0.574
- relative viability ([2]; first compound 0.2 µM): 0.995
- relative viability ([2]; first compound 0.6325 µM): 0.971
- relative viability ([2]; first compound 2 µM): 1.12
- relative viability ([2]; first compound 6.325 µM): 0.828
- relative viability ([3]; first compound 0.08 µM): 0.943
- relative viability ([3]; first compound 0.253 µM): 1.08
- relative viability ([3]; first compound 0.8 µM): 0.998
- relative viability ([3]; first compound 2.53 µM): 0.574
- relative viability ([3]; first compound 8 µM): 0.657
- relative viability ([4]; first compound 0.08 µM): 0.466
- relative viability ([4]; first compound 0.253 µM): 0.385
- relative viability ([4]; first compound 0.8 µM): 0.592
- relative viability ([4]; first compound 2.53 µM): 0.484
- relative viability ([4]; first compound 8 µM): 0.374

Cell Line: COR-L23
- relative viability ([1]; first compound 0.2 µM): 0.348
- relative viability ([1]; first compound 0.6325 µM): 0.38
- relative viability ([1]; first compound 2 µM): 0.414
- relative viability ([1]; first compound 6.325 µM): 0.339
- relative viability ([2]; first compound 0.2 µM): 0.799
- relative viability ([2]; first compound 0.6325 µM): 0.724
- relative viability ([2]; first compound 2 µM): 0.944
- relative viability ([2]; first compound 6.325 µM): 0.712
- relative viability ([3]; first compound 0.08 µM): 0.595
- relative viability ([3]; first compound 0.253 µM): 0.933
- relative viability ([3]; first compound 0.8 µM): 1.03
- relative viability ([3]; first compound 2.53 µM): 0.565
- relative viability ([3]; first compound 8 µM): 0.686
- relative viability ([4]; first compound 0.08 µM): 0.948
- relative viability ([4]; first compound 0.253 µM): 0.945
- relative viability ([4]; first compound 0.8 µM): 1.23
- relative viability ([4]; first compound 2.53 µM): 0.678
- relative viability ([4]; first compound 8 µM): 0.828

Cell Line: ABC-1
- relative viability ([1]; first compound 0.2 µM): 1.17
- relative viability ([1]; first compound 0.6325 µM): 0.768
- relative viability ([1]; first compound 2 µM): 0.983
- relative viability ([1]; first compound 6.325 µM): 0.915
- relative viability ([2]; first compound 0.2 µM): 0.955
- relative viability ([2]; first compound 0.6325 µM): 0.988
- relative viability ([2]; first compound 2 µM): 1.18
- relative viability ([2]; first compound 6.325 µM): 0.92
- relative viability ([3]; first compound 0.08 µM): 0.611
- relative viability ([3]; first compound 0.253 µM): 0.801
- relative viability ([3]; first compound 0.8 µM): 0.81
- relative viability ([3]; first compound 2.53 µM): 0.521
- relative viability ([3]; first compound 8 µM): 0.815
- relative viability ([4]; first compound 0.08 µM): 0.267
- relative viability ([4]; first compound 0.253 µM): 0.306
- relative viability ([4]; first compound 0.8 µM): 0.317
- relative viability ([4]; first compound 2.53 µM): 0.336
- relative viability ([4]; first compound 8 µM): 0.408
